# Values of other authors in paper PMC2839367 (The Science of the total environment, 2010).
# Assays:
# [1] = test system: S. cerevisiae BLYES estrogen sensitive strain; settings: ref Sanseverino et al (2005)
# human estrogen receptor = settings: ref Folmar et al (2002)
substance,measurement,setting,value
nonylphenol,EC50,[1],17 µM
same,EC50,human estrogen receptor,290 µM
